Measurements taken from the supplement of paper PMC11451515.

Experiments:
Details in all cases: 48 h
[1] = test system: NOMO1; experiment: cell viability relative to DMSO control; higher = less cytotoxic
Method in brief: (§1)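 In 1536-well plates, 5 μl of leukemia cells were seeded per well: 500 cells/well for NOMO1 or SEM and 1000 cells/well for P12-Ichikawa. Each line had first been adapted for at least four passages in each medium. Library compounds in DMSO were pin-dosed at 11 threefold concentrations between 47 μM and 0.79 nM, and CellTiter-Glo One luminescence was read after 48 h at 37°C. Viability is a per-plate percentage relative to DMSO wells, with cell-free wells as background.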

[2] = test system: P12-Ichikawa; experiment: as above
Method in brief: as §1

[3] = test system: SEM cells; experiment: as above
Method in brief: as §1

[4] = test system: NOMO1; experiment: AUC of viability dose-response curve (% viability x log10 dose units); higher = less sensitive
Method in brief: (§2)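 Leukemia cells adapted to each medium were seeded in 1536-well plates (500 or 1000 cells/well). They were dosed with library compounds in DMSO at 11 threefold doses, 47 μM to 0.79 nM, for 48 h at 37°C. CellTiter-Glo One luminescence was normalised per plate to DMSO and cell-free wells. Area under the curve was integrated by trapezoidal rule over log10 doses on a four-parameter log-logistic fit; curves exceeding full viability were scaled and curves failing quality control removed.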

[5] = test system: P12-Ichikawa; experiment: as above
Method in brief: as §2

[6] = test system: SEM cells; experiment: as above
Method in brief: as §2

O=c1[nH]c(=O)n([C@H]2C[C@H](O)[C@@H](CO)O2)cc1/C=C/Br
cell viability [%]
Details | [1] | [2] | [3]
HPLM + 10% dialyzed FBS, 0.000781 µM | 89.1 | 103 | 92.7
HPLM + 10% dialyzed FBS, 0.00234 µM | 108 | 126 | 116
HPLM + 10% dialyzed FBS, 0.00702 µM | 120 | 105 | 101
HPLM + 10% dialyzed FBS, 0.0211 µM | 108 | 115 | 120
HPLM + 10% dialyzed FBS, 0.0632 µM | 123 | 102 | 119
HPLM + 10% dialyzed FBS, 0.19 µM | 108 | 61.2 | 119
HPLM + 10% dialyzed FBS, 0.569 µM | 96.2 | 60.8 | 114
HPLM + 10% dialyzed FBS, 1.71 µM | 96.5 | 70 | 100
HPLM + 10% dialyzed FBS, 5.12 µM | 79.4 | 75.8 | 86.4
HPLM + 10% dialyzed FBS, 15.4 µM | 72.4 | 61.4 | 78.7
HPLM + 10% dialyzed FBS, 46.1 µM | 55.4 | 47.8 | 60.2
RPMI 5 mM glucose + 10% FBS, 0.000781 µM | 93.9 | 97.6 | 101
RPMI 5 mM glucose + 10% FBS, 0.00234 µM | 111 | 107 | 121
RPMI 5 mM glucose + 10% FBS, 0.00702 µM | 97.7 | 103 | 114
RPMI 5 mM glucose + 10% FBS, 0.0211 µM | 106 | 103 | 109
RPMI 5 mM glucose + 10% FBS, 0.0632 µM | 114 | 105 | 123
RPMI 5 mM glucose + 10% FBS, 0.19 µM | 101 | 110 | 105
RPMI 5 mM glucose + 10% FBS, 0.569 µM | 113 | 108 | 119
RPMI 5 mM glucose + 10% FBS, 1.71 µM | 117 | 106 | 117
RPMI 5 mM glucose + 10% FBS, 5.12 µM | 106 | 107 | 115
RPMI 5 mM glucose + 10% FBS, 15.4 µM | 120 | 110 | 119
RPMI 5 mM glucose + 10% FBS, 46.1 µM | 110 | 106 | 120
RPMI 5 mM glucose + 10% dialyzed FBS, 0.000781 µM | 123 | 92.6 | 90.8
RPMI 5 mM glucose + 10% dialyzed FBS, 0.00234 µM | 110 | 104 | 117
RPMI 5 mM glucose + 10% dialyzed FBS, 0.00702 µM | 102 | 109 | 103
RPMI 5 mM glucose + 10% dialyzed FBS, 0.0211 µM | 122 | 118 | 98.6
RPMI 5 mM glucose + 10% dialyzed FBS, 0.0632 µM | 119 | 112 | 106
RPMI 5 mM glucose + 10% dialyzed FBS, 0.19 µM | 114 | 106 | 112
RPMI 5 mM glucose + 10% dialyzed FBS, 0.569 µM | 107 | 103 | 116
RPMI 5 mM glucose + 10% dialyzed FBS, 1.71 µM | 121 | 108 | 116
RPMI 5 mM glucose + 10% dialyzed FBS, 5.12 µM | 134 | 108 | 111
RPMI 5 mM glucose + 10% dialyzed FBS, 15.4 µM | 130 | 102 | 102
RPMI 5 mM glucose + 10% dialyzed FBS, 46.1 µM | 105 | 100 | 82.2

AUC of viability dose-response curve
Details | [4] | [5] | [6]
HPLM + 10% dialyzed FBS | 425 | 357 | 436
RPMI 5 mM glucose + 10% FBS | 456 | 472 | 460
RPMI 5 mM glucose + 10% dialyzed FBS | 454 | 477 | 469

Nc1ncnc2c1ncn2[C@@H]1O[C@@H](CO)[C@H](O)[C@@H]1O
cell viability [%]
Details | [1] | [3]
HPLM + 10% dialyzed FBS, 0.000781 µM | 94.2 | 93.8
HPLM + 10% dialyzed FBS, 0.00234 µM | 125 | 90.1
HPLM + 10% dialyzed FBS, 0.00702 µM | 117 | 111
HPLM + 10% dialyzed FBS, 0.0211 µM | 140 | 119
HPLM + 10% dialyzed FBS, 0.0632 µM | 142 | 124
HPLM + 10% dialyzed FBS, 0.19 µM | 134 | 117
HPLM + 10% dialyzed FBS, 0.569 µM | 144 | 109
HPLM + 10% dialyzed FBS, 1.71 µM | 156 | 109
HPLM + 10% dialyzed FBS, 5.12 µM | 139 | 115
HPLM + 10% dialyzed FBS, 15.4 µM | 140 | 118
HPLM + 10% dialyzed FBS, 46.1 µM | 136 | 62.4
RPMI 5 mM glucose + 10% dialyzed FBS, 0.000781 µM | 122 | 106
RPMI 5 mM glucose + 10% dialyzed FBS, 0.00234 µM | 121 | 105
RPMI 5 mM glucose + 10% dialyzed FBS, 0.00702 µM | 122 | 116
RPMI 5 mM glucose + 10% dialyzed FBS, 0.0211 µM | 127 | 112
RPMI 5 mM glucose + 10% dialyzed FBS, 0.0632 µM | 135 | 130
RPMI 5 mM glucose + 10% dialyzed FBS, 0.19 µM | 136 | 144
RPMI 5 mM glucose + 10% dialyzed FBS, 0.569 µM | 133 | 121
RPMI 5 mM glucose + 10% dialyzed FBS, 1.71 µM | 135 | 123
RPMI 5 mM glucose + 10% dialyzed FBS, 5.12 µM | 127 | 123
RPMI 5 mM glucose + 10% dialyzed FBS, 15.4 µM | 155 | 84.9
RPMI 5 mM glucose + 10% dialyzed FBS, 46.1 µM | 137 | 50.2

AUC of viability dose-response curve
Details | [4] | [5] | [6]
HPLM + 10% dialyzed FBS | 454 | 464 | 467
RPMI 5 mM glucose + 10% FBS | 467 | 477 | 466
RPMI 5 mM glucose + 10% dialyzed FBS | 441 | 472 | 449
